Test [1] has as its target T1, cloned human M2 receptor (human Muscarinic receptor subtype 2) (Homo sapiens, UniProt P08172).
T1 construct: purchased Perkin-Elmer RBHM2M; host or cells: Chinese hamster ovary cells (CHO) membranes
T1 sequence (P08172 1-466): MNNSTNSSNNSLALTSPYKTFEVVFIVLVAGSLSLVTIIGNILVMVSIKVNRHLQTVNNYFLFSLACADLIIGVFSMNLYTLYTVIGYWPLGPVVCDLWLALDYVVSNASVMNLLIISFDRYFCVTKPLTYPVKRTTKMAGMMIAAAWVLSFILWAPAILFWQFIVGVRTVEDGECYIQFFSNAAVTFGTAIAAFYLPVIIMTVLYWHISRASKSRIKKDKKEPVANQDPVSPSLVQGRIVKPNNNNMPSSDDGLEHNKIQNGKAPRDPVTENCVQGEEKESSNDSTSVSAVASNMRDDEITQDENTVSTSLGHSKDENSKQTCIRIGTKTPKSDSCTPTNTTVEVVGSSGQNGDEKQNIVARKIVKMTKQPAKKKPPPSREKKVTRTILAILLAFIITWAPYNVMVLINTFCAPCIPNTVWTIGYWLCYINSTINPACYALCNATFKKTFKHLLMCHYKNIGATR
Put plainly: hM2 receptor GTPγS binding. Format: biochemical. Conditions: CHO cell membranes expressing hM2; [35S]GTPγS binding; read-out: hM2 EC50. The protocol:
hM2 Receptor GTPγS Binding
Membranes produced from Chinese hamster ovary cells (CHO) expressing the cloned human M2 receptor (human Muscarinic receptor subtype 2, gene bank access NM_000739), are obtained from Perkin-Elmer (RBHM2M). The membranes are thawed at 37° C., passed 3 times through a 23-gauge blunt-end needle, diluted in the GTPγS binding buffer (50 mM Hepes, 20 mM NaOH, 100 mM NaCl, 1 mM EDTA, 5 mM MgCl2, pH 7.4, 100 μM DTT). The EC50, IC50 and Emax of the compounds of the invention are evaluated from 10-point dose-response curves (three fold concentration range) done in 60 μl in 384-well non-specific binding surface plate (Corning). Ten microliters from the dose-response curves plate (5× concentration) are transferred to another 384 well plate containing 25 μl of the following: 5 μg of hM2 membranes, 500 μg of Flashblue beads (Perkin-Elmer) and GDP 25 μM. An additional 15 μl containing 3.3× (60,000 dpm) of GTPγ^35S (0.4 nM final) are added to the wells resulting in a total well volume of 50 μl. Basal and maximal stimulated [^35S]GTPγS binding are determined in absence and presence of 30 μM final of acetylcholine agonist. The membranes/beads mix are pre-incubated for 15 minutes at room temperature with 25 μM GDP prior to distribution in plates (12.5 μM final). The reversal of acetylcholine-induced stimulation (2 μM final) of [^35S]GTPγS binding is used to assay the antagonist properties (IC50) of the compounds. The plates are incubated for 60 minutes at room temperature then centrifuged at 400 rpm for 5 minutes. The radioactivity (cpm) is counted in a Trilux (Perkin-Elmer).
(§1) Values of EC50, IC50 and Emax are obtained using sigmoidal fits of a non-linear curve-fitting program (XLfit version 4.2.2 Excel add-in version 4.2.2 build 18 math 1Q version 2.1.2 build 18) of percent stimulated [^35S]GTPγS binding vs. log(molar ligand). All pEC50 and plC50 values are reported as arithmetic means ±standard error of mean of ‘n’ independent experiments.

Test [2] has as its target T2, cloned human M4 receptor (human Muscarinic receptor subtype 4) (Homo sapiens, UniProt P08173).
T2 construct: purchased Perkin-Elmer RBHM4M; host or cells: Chinese hamster ovary cells (CHO) membranes
T2 sequence (P08173 1-479): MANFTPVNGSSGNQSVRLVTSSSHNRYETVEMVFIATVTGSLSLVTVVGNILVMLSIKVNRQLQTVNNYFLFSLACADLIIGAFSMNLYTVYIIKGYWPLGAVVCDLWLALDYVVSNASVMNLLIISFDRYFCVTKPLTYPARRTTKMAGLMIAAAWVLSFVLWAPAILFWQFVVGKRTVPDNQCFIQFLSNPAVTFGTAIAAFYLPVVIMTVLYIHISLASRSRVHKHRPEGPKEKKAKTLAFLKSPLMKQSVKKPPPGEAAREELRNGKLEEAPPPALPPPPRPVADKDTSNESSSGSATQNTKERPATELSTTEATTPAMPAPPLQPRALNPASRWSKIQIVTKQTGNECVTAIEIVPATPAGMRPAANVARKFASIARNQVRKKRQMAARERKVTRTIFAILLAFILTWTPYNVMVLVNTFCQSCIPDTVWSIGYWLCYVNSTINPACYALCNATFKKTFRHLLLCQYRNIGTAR
Nature of the test: hM4 receptor GTPγS binding. In kind it is biochemical. Conditions: CHO cell membranes expressing hM4; [35S]GTPγS binding; read-out: hM4 EC50. The method, then: hM4 Receptor GTPγS Binding
Membranes produced from Chinese hamster ovary cells (CHO) expressing the cloned human M4 receptor (human Muscarinic receptor subtype 4, gene bank access NM_000741), are obtained from Perkin-Elmer (RBHM4M). The membranes are thawed at 37° C., passed 3 times through a 23-gauge blunt-end needle, diluted in the GTPγS binding buffer (50 mM Hepes, 20 mM NaOH, 100 mM NaCl, 1 mM EDTA, 5 mM MgCl2, pH 7.4, 100 μM DTT). The EC50, IC50 and Emax of the compounds of the invention are evaluated from 10-point dose-response curves (three fold concentration range) done in 60 μl in 384-well non-specific binding surface plate (Corning). Ten microliters from the dose-response curves plate (5× concentration) are transferred to another 384 well plate containing 25 μl of the following: 10 μg of hM4 membranes, 500 μg of Flashblue beads (Perkin-Elmer) and GDP 40 μM. An additional 15 μl containing 3.3× (60,000 dpm) of GTPγ^35S (0.4 nM final) are added to the wells resulting in a total well volume of 50 μl. Basal and maximal stimulated [^35S]GTPγS binding are determined in absence and presence of 30 μM final of acetylcholine agonist. The membranes/beads mix are pre-incubated for 15 minutes at room temperature with 40 μM GDP prior to distribution in plates (20 μM final). The reversal of acetylcholine-induced stimulation (10 μM final) of [^35S]GTPγS binding is used to assay the antagonist properties (IC50) of the compounds. The plates are incubated for 60 minutes at room temperature then centrifuged at 400 rpm for 5 minutes. The radioactivity (cpm) is counted in a Trilux (Perkin-Elmer).
as §1

In the case of `CCOC(=O)N1CCC(C)(N2CCC(n3c(=O)[nH]c4ccc(F)cc43)CC2)C1` (single isomer, unassigned) [Example 50, ethyl 3-(4-(6-fluoro-2-oxo-2,3-dihydro-1H-benzo[d]imidazol-1-yl)piperidin-1-yl)-3-methylpyrrolidine-1-carboxylate], the EC50 in test [1] came to 0.498 µM; in test [2] it was 2.02 µM.
For `COC(=O)N1CCC(C)(N2CCC(n3c(=O)[nH]c4ccc(F)cc43)CC2)C1` (single isomer, unassigned) [Example 52, methyl 3-(4-(6-fluoro-2-oxo-2,3-dihydro-1H-benzo[d]imidazol-1-yl)piperidin-1-yl)-3-methylpyrrolidine-1-carboxylate], the values for the EC50 in test [1] and in test [2] were 1.24 µM and 5.09 µM, respectively.
For `CC1(N2CCC(n3c(=O)[nH]c4ccc(F)cc43)CC2)CCN(C(=O)OCCF)C1` (single isomer, unassigned) [Example 53, 2-fluoroethyl 3-(4-(6-fluoro-2-oxo-2,3-dihydro-1H-benzo[d]imidazol-1-yl)piperidin-1-yl)-3-methylpyrrolidine-1-carboxylate], in that order: 1.62 µM and 5.57 µM.
With `CCOC(=O)N1CCC(C)(N2CCC(n3c(=O)[nH]c4cc(F)c(C)cc43)CC2)C1` (single isomer, unassigned) [Example 55, ethyl 3-(4-(5-fluoro-6-methyl-2-oxo-2,3-dihydro-1H-benzo[d]imidazol-1-yl)piperidin-1-yl)-3-methylpyrrolidine-1-carboxylate], the EC50 stood at 0.319 µM in test [1] and 1.71 µM in test [2].
The like results for `CCOC(=O)N1CCC(C)(N2CCC(n3c(=O)[nH]c4cc(F)c(C)cc43)CC2)C1` (single isomer, unassigned) [Example 56, ethyl 3-(4-(5-fluoro-6-methyl-2-oxo-2,3-dihydro-1H-benzo[d]imidazol-1-yl)piperidin-1-yl)-3-methylpyrrolidine-1-carboxylate] were, in that order, 0.024 µM and 0.238 µM.
Consider `CCOC(=O)N1CCC(C)(N2CCC(n3c(=O)[nH]c4cc(F)c(F)cc43)CC2)C1` (single isomer, unassigned) [Example 57, ethyl 3-(4-(5,6-difluoro-2-oxo-2,3-dihydro-1H-benzo[d]imidazol-1-yl)piperidin-1-yl)-3-methylpyrrolidine-1-carboxylate], for which the results for the EC50 in test [1] and in test [2] were 0.428 µM and 2.2 µM, respectively.
Regarding `CCOC(=O)N1CCC(C)(N2CCC(n3c(=O)[nH]c4cc(F)c(F)cc43)CC2)C1` (single isomer, unassigned) [Example 58, ethyl 3-(4-(5,6-difluoro-2-oxo-2,3-dihydro-1H-benzo[d]imidazol-1-yl)piperidin-1-yl)-3-methylpyrrolidine-1-carboxylate], the EC50 was 2.1 µM in test [1] and 9.81 µM in test [2].
For `COC(=O)N1CCC(C)(N2CCC(n3c(=O)[nH]c4cc(F)c(F)cc43)CC2)C1` (single isomer, unassigned) [Example 60, methyl 3-(4-(5,6-difluoro-2-oxo-2,3-dihydro-1H-benzo[d]imidazol-1-yl)piperidin-1-yl)-3-methylpyrrolidine-1-carboxylate], in that order: 1.03 µM and 5.08 µM.
The like results for `CC1(N2CCC(n3c(=O)[nH]c4cc(F)c(F)cc43)CC2)CCN(C(=O)OCCF)C1` (single isomer, unassigned) [Example 61, 2-fluoroethyl 3-(4-(5,6-difluoro-2-oxo-2,3-dihydro-1H-benzo[d]imidazol-1-yl)piperidin-1-yl)-3-methylpyrrolidine-1-carboxylate] were, in that order, 1.71 µM and 4.42 µM.
The like results for `COC(=O)N1CCC(C)(N2CCC(N3C(=O)Cc4ccc(C)cc43)CC2)C1` (single isomer, unassigned) [Example 67, methyl 3-methyl-3-(4-(6-methyl-2-oxoindolin-1-yl)piperidin-1-yl)pyrrolidine-1-carboxylate] were, in that order, 4.65 µM and 15.1 µM.
Take `COC(=O)N1CCC(C)(N2CCC(N3C(=O)Cc4ccc(C)cc43)CC2)C1` (single isomer, unassigned) [Example 68, methyl 3-methyl-3-(4-(6-methyl-2-oxoindolin-1-yl)piperidin-1-yl)pyrrolidine-1-carboxylate]: the values for the EC50 in test [1] and in test [2] were 1.15 µM and 6.21 µM, respectively.
The like results for `CCOC(=O)N1CCC(C)(N2CCC(N3C(=O)Cc4ccc(C)cc43)CC2)C1` (single isomer, unassigned) [Example 69, ethyl 3-methyl-3-(4-(6-methyl-2-oxoindolin-1-yl)piperidin-1-yl)pyrrolidine-1-carboxylate] were, in that order, 1.86 µM and 8.92 µM.
Regarding `CCOC(=O)N1CCC(C)(N2CCC(N3C(=O)Cc4ccc(C)cc43)CC2)C1` (single isomer, unassigned) [Example 70, ethyl 3-methyl-3-(4-(6-methyl-2-oxoindolin-1-yl)piperidin-1-yl)pyrrolidine-1-carboxylate], the EC50 amounted to 0.448 µM in test [1] and 1.77 µM in test [2].
For `CCOC(=O)N1CCC(C)(N2CCC(N3C(=O)Cc4ccccc43)CC2)C1` (single isomer, unassigned) [Example 72, ethyl 3-methyl-3-(4-(2-oxoindolin-1-yl)piperidin-1-yl)pyrrolidine-1-carboxylate], in that order: 0.95 µM and more than 90 µM.
For `CCOC(=O)N1CCC(C)(N2CCC(N3C(=O)Cc4ccccc43)CC2)C1` (single isomer, unassigned) [Example 73, ethyl 3-methyl-3-(4-(2-oxoindolin-1-yl)piperidin-1-yl)pyrrolidine-1-carboxylate], in that order: 6.16 µM and more than 90 µM.
